Measurements reported in PubChem BioAssay AID330 (DTP/NCI, 2004).
Where “and” joins values, the source holds several entries; their conditions need not be identical. Identical values can stand only once. Inconclusive results and toxic doses are left out.

Tested on: P388 leukemia ip, CD2F1 mice, survival T/C
Experiment: NCI In Vivo Anticancer Drug Screen. Data for tumor model P388 Leukemia (intraperitoneal) in CD2F1 (CDF1) mice
Details: endpoint: median survival time, higher = longer survival
Summary of the method: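 Mice carrying the transplanted tumor received test compound or vehicle. Survival was recorded in each group, and the value is the treated-group measurement divided by that of the vehicle-treated control group.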

[1] = dose: 50.0 mg/kg/injection, schedule: Q01DX005 (ip), vehicle: saline
[2] = dose: 100.0 mg/kg/injection, schedule: Q01DX005 (ip), vehicle: saline
[3] = dose: 200.0 mg/kg/injection, schedule: Q01DX005 (ip), vehicle: saline
[4] = dose: 50.0 mg/kg/injection, schedule: Q01DX009 (ip), vehicle: saline with Tween-80
[5] = dose: 100.0 mg/kg/injection, schedule: Q01DX009 (ip), vehicle: saline with Tween-80
[6] = dose: 200.0 mg/kg/injection, schedule: Q01DX009 (ip), vehicle: saline with Tween-80
[7] = dose: 50.0 mg/kg/injection, schedule: Q01DX005 (ip), vehicle: saline with Tween-80
[8] = dose: 100.0 mg/kg/injection, schedule: Q01DX005 (ip), vehicle: saline with Tween-80
[9] = dose: 25.0 mg/kg/injection, schedule: Q01DX009 (ip), vehicle: saline with Tween-80
[10] = dose: 100.0 mg/kg/injection, schedule: Q04DX002 (ip), vehicle: Klucel (hydroxypropylcellulose) (HPC)
[11] = dose: 200.0 mg/kg/injection, schedule: Q04DX002 (ip), vehicle: Klucel (hydroxypropylcellulose) (HPC)
[12] = dose: 400.0 mg/kg/injection, schedule: Q04DX002 (ip), vehicle: Klucel (hydroxypropylcellulose) (HPC)
[13] = dose: 50.0 mg/kg/injection, schedule: Q04DX003 (ip), vehicle: saline with Tween-80
[14] = dose: 100.0 mg/kg/injection, schedule: Q04DX003 (ip), vehicle: saline with Tween-80
[15] = dose: 50.0 mg/kg/injection, schedule: Q01DX009 (ip), vehicle: Klucel (hydroxypropylcellulose) (HPC)
[16] = dose: 100.0 mg/kg/injection, schedule: Q01DX009 (ip), vehicle: Klucel (hydroxypropylcellulose) (HPC)
[17] = dose: 200.0 mg/kg/injection, schedule: Q01DX009 (ip), vehicle: Klucel (hydroxypropylcellulose) (HPC)
[18] = dose: 50.0 mg/kg/injection, schedule: Q01DX005 (ip), vehicle: Klucel (hydroxypropylcellulose) (HPC)
[19] = dose: 100.0 mg/kg/injection, schedule: Q01DX005 (ip), vehicle: Klucel (hydroxypropylcellulose) (HPC)
[20] = dose: 100.0 mg/kg/injection, schedule: Q04DX002 (ip), vehicle: saline with Tween-80
[21] = dose: 200.0 mg/kg/injection, schedule: Q04DX002 (ip), vehicle: saline with Tween-80
[22] = dose: 400.0 mg/kg/injection, schedule: Q04DX002 (ip), vehicle: saline with Tween-80
[23] = dose: 200.0 mg/kg/injection, schedule: Q01DX005 (ip), vehicle: saline with Tween-80

With `Nc1cc2c(c[n+](CCC[n+]3cc4c5ccccc5c(N)cc4c4ccccc43)c3ccccc23)c2ccccc12` the T/C (dose: 3.13 mg/kg/injection, schedule: Q04DX003 (ip), vehicle: other) was 94 % of control, the T/C (dose: 6.25 mg/kg/injection, schedule: Q04DX003 (ip), vehicle: other) was 102 % of control and the T/C (dose: 12.5 mg/kg/injection, schedule: Q04DX003 (ip), vehicle: other) was 93 % of control. For the same compound, the T/C (dose: 25.0 mg/kg/injection, schedule: Q04DX003 (ip), vehicle: other) was 92 % of control, the T/C (dose: 50.0 mg/kg/injection, schedule: Q04DX003 (ip), vehicle: other) was 93 % of control and the T/C (dose: 100.0 mg/kg/injection, schedule: Q04DX003 (ip), vehicle: other) was 86 % of control.
`c1ccc(C23OOC(c4ccccc4)(c4ccccc42)c2ccccc23)cc1` was tested, and the T/C (dose: 5.0 mg/kg/injection, schedule: Q01DX001 (ip), vehicle: Klucel (hydroxypropylcellulose) (HPC)) was 96 % of control, the T/C (dose: 10.0 mg/kg/injection, schedule: Q01DX001 (ip), vehicle: Klucel (hydroxypropylcellulose) (HPC)) was 96 % of control and the T/C (dose: 20.0 mg/kg/injection, schedule: Q01DX001 (ip), vehicle: Klucel (hydroxypropylcellulose) (HPC)) was 89 % of control.
`NNC(=S)NCCN1CCOCC1` was tested, and the T/C [1] was 105 % of control, the T/C [2] was 105 % of control and the T/C [3] was 100 % of control.
`CC(C)(C)c1cc(OS(=O)(=O)C(F)(F)C(F)(F)C(F)(F)C(F)(F)F)cc(C(C)(C)C)c1` was tested, and the T/C [4] was 106 % of control, the T/C [5] was 108 % of control and the T/C [6] was 108 % of control.
`COC(=O)C1=C(C(=O)OC)C2CC3C4CC=C5CC(OC(C)=O)CCC5(C)C4CCC3(C)C2=C(OC(C)=O)C1` (configuration not stated) was tested, and the T/C [7] was 90 % of control and the T/C [8] was 87 % of control.
For `C=C(COC(C)=O)[C@@H](C)C(=O)C1OCOC(C2CC(=O)NC(=O)C2)[C@@H]1OC(C)=O` (some centres not stated), the T/C (dose: 0.01 mg/kg/injection, schedule: Q01DX009 (ip), vehicle: distilled water + alcohol) was 98 % of control, the T/C (dose: 0.03 mg/kg/injection, schedule: Q01DX009 (ip), vehicle: distilled water + alcohol) was 102 % of control and the T/C (dose: 0.06 mg/kg/injection, schedule: Q01DX009 (ip), vehicle: distilled water + alcohol) was 102 % of control. The T/C (dose: 0.12 mg/kg/injection, schedule: Q01DX009 (ip), vehicle: distilled water + alcohol) was 102 % of control.
With `CC(=O)OCC1OC(S[As](C)C)C(OC(C)=O)C(OC(C)=O)C1OC(C)=O` (configuration not stated) the T/C [9] was 114 % of control, the T/C [4] was 111 % of control and the T/C [5] was 116 % of control. For the same compound, the T/C [6] was 124 % of control.
In the case of `O=c1c2ccccc2ncn1C12CC3CC(CC(C3)C1)C2`, the T/C [10] is reported as 105 % of control, the T/C [11] is reported as 100 % of control and the T/C [12] is reported as 100 % of control.
For `O=C(c1ccc(Cl)cc1)C(O)NC(=S)c1ccc(Cl)cc1` (configuration not stated), the T/C [4] was 96 % of control, the T/C [5] was 111 % of control and the T/C [6] was 113 % of control.
With `CCCCCCCCCCCCCCCCCC1=NCCN1CCN` the T/C [9] was 100 % of control, the T/C (dose: 25.0 mg/kg/injection, schedule: Q04DX003 (ip), vehicle: saline with Tween-80) was 100 % of control and the T/C [4] was 104 % of control. The T/C [13] was 109 % of control, the T/C [5] was 109 % of control and the T/C [14] was 95 % of control.
`COC(=O)/C(=N\NS(=O)(=O)c1ccc(C)cc1)c1ccccc1` was tested, and the T/C (dose: 12.5 mg/kg/injection, schedule: Q01DX009 (ip), vehicle: Klucel (hydroxypropylcellulose) (HPC)) was 99 % of control, the T/C (dose: 25.0 mg/kg/injection, schedule: Q01DX009 (ip), vehicle: Klucel (hydroxypropylcellulose) (HPC)) was 105 % of control and the T/C [15] was 99 % of control. The T/C [16] was 98 % of control and the T/C [17] was 90 % of control.
In the case of `Cn1c(Cl)c(/C=C(/NC(=O)c2ccccc2)C(=O)O)c2ccccc21`, the T/C (dose: 100.0 mg/kg/injection, schedule: Q01DX001 (ip), vehicle: Klucel (hydroxypropylcellulose) (HPC)) is reported as 102 % of control, the T/C (dose: 200.0 mg/kg/injection, schedule: Q01DX001 (ip), vehicle: Klucel (hydroxypropylcellulose) (HPC)) is reported as 93 % of control and the T/C (dose: 400.0 mg/kg/injection, schedule: Q01DX001 (ip), vehicle: Klucel (hydroxypropylcellulose) (HPC)) is reported as 93 % of control.
For `[Cl][Co][Cl].c1ccc2[nH]cnc2c1.c1ccc2[nH]cnc2c1`, the T/C [18] was 111 % of control and the T/C [19] was 111 % of control.
`CS(C)=NC(=Nc1ccccc1)c1ccccc1` was tested, and the T/C [13] was 101 % of control and the T/C [14] was 104 % of control.
In the case of `CCCCOC(=O)/C=C(\Cl)C(=O)OCCCC`, the T/C (dose: 12.5 mg/kg/injection, schedule: Q01DX009 (ip), vehicle: saline with Tween-80) is reported as 102 % of control and 106 % of control and 111 % of control, the T/C [9] is reported as 111 % of control and 114 % of control and 118 % of control and the T/C [5] is reported as 86 % of control.
In the case of `O=C1CSC(c2cccc(Cl)c2Cl)N1c1nncs1` (configuration not stated), the T/C [20] is reported as 112 % of control, the T/C [21] is reported as 94 % of control and the T/C [22] is reported as 97 % of control.
For `Cc1cc[n+](CCC(N)=O)cc1`, the T/C (dose: 100.0 mg/kg/injection, schedule: Q04DX003 (ip), vehicle: saline) was 100 % of control and the T/C (dose: 200.0 mg/kg/injection, schedule: Q04DX003 (ip), vehicle: saline) was 100 % of control.
`CCN1/C(=C/C=C/C=C\C=C\c2sc3ccc4ccccc4c3[n+]2CC)Sc2ccc3ccccc3c21` was tested, and the T/C (dose: 1.56 mg/kg/injection, schedule: Q04DX002 (ip), vehicle: saline with Tween-80) was 153 % of control and 168 % of control, the T/C (dose: 3.12 mg/kg/injection, schedule: Q04DX002 (ip), vehicle: saline with Tween-80) was 166 % of control and the T/C (dose: 6.25 mg/kg/injection, schedule: Q04DX002 (ip), vehicle: saline with Tween-80) was 156 % of control and 171 % of control. For the same compound, the T/C (dose: 12.5 mg/kg/injection, schedule: Q04DX002 (ip), vehicle: saline with Tween-80) was 159 % of control and 171 % of control and 186 % of control.
For `CCc1ccc2c(c1)C(O)(c1ccccc1)c1c(c(-c3ccccc3)c3ccccc3c1-c1ccccc1)C2(O)c1ccccc1` (configuration not stated), the T/C [7] was 92 % of control, the T/C [8] was 89 % of control and the T/C [23] was 89 % of control.
In the case of `CN(C)CCCNC(=O)c1nn(-c2ccccc2)c2c1N(C)S(=O)(=O)c1ccccc1-2`, the T/C [1] is reported as 92 % of control, the T/C [2] is reported as 99 % of control and the T/C [3] is reported as 101 % of control.
`Cc1ccc(Cl)cc1NC(=O)COc1ccc(Cl)cc1Cl` was tested, and the T/C [14] was 100 % of control, the T/C (dose: 200.0 mg/kg/injection, schedule: Q04DX003 (ip), vehicle: saline with Tween-80) was 100 % of control and the T/C (dose: 400.0 mg/kg/injection, schedule: Q04DX003 (ip), vehicle: saline with Tween-80) was 90 % of control.
`CC(=O)OCC1OC(Oc2cccc(C=C(C(C)=O)C(C)=O)c2)C(OC(C)=O)C(OC(C)=O)C1OC(C)=O` (configuration not stated) was tested, and the T/C [18] was 100 % of control, the T/C [19] was 98 % of control and the T/C (dose: 200.0 mg/kg/injection, schedule: Q01DX005 (ip), vehicle: Klucel (hydroxypropylcellulose) (HPC)) was 105 % of control.
`O=c1cc(CC(O)c2ccccc2)c2ccccc2[nH]1` (configuration not stated) was tested, and the T/C [20] was 95 % of control, the T/C [21] was 94 % of control and the T/C [22] was 91 % of control.
`O=C(O)C12C3C4C5C3C3(OCCO3)C1(Br)C5C42` (configuration not stated) was tested, and the T/C (dose: 60.0 mg/kg/injection, schedule: Q01DX005 (ip), vehicle: saline with Tween-80) was 100 % of control, the T/C (dose: 120.0 mg/kg/injection, schedule: Q01DX005 (ip), vehicle: saline with Tween-80) was 102 % of control and the T/C (dose: 240.0 mg/kg/injection, schedule: Q01DX005 (ip), vehicle: saline with Tween-80) was 107 % of control.
For `CC(C)CC[NH-].CC(C)CC[NH-].[Cl][Pt+2]([Cl])([Cl])[Cl]`, the T/C [5] was 176 % of control.
`Cc1nn(C(=S)S)c(C)c1N=Nc1ccccc1Cl` was tested, and the T/C [7] was 111 % of control, the T/C [8] was 117 % of control and the T/C [23] was 108 % of control.
In the case of `CC1(C)N=NC2(Br)C3CCC(C3)C12` (configuration not stated), the T/C [10] is reported as 102 % of control, the T/C [11] is reported as 97 % of control and the T/C [12] is reported as 100 % of control.
In the case of `Oc1ccccc1C=Nc1ccc2nc(SCc3ccccc3)sc2c1`, the T/C [15] is reported as 109 % of control, the T/C [16] is reported as 100 % of control and the T/C [17] is reported as 89 % of control.
`CCN(CC)CCCNc1c(O)cc(C)c2sc3ccccc3c(=O)c12` was tested, and the T/C [4] was 94 % of control, the T/C [5] was 94 % of control and the T/C [6] was 100 % of control.
